Source: US12428408B2, “Fused heterocyclic mescaline derivatives” (Enveric Biosciences Canada Inc., priority 2022, dated 2025)
Like-named read-outs stand apart in the source and are kept apart here.

What was measured:
[1] = molecular target: T1, D3 (h) (Homo sapiens, UniProt P35462); test: Competition assay to measure binding affinity at D3 receptor; details: test ligand 10 μM; [3H]methylspiperone […]
T1 construct: host or cells: CHO cells

[2] = molecular target: T2, 5-HT1D (r) (Rattus norvegicus, UniProt P28565); test: Competition assay to measure binding affinity at 5-HT1D receptor; details: test ligand 10 μM; [3H]serotonin 1 nM
T2 construct: host or cells: CHO cells
T2 sequence (P28565 whole entry): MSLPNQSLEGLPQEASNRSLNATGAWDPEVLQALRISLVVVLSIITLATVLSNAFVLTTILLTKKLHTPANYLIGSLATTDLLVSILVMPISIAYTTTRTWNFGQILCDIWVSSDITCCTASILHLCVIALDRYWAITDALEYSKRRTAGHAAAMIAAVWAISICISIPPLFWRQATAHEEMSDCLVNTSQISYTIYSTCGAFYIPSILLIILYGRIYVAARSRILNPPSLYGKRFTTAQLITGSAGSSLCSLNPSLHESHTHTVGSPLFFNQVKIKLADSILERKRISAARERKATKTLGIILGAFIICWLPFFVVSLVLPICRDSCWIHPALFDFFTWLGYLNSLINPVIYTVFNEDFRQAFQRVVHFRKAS

[3] = molecular target: T3, 5-HT2B (h) (Homo sapiens, UniProt P41595); test: Competition assay to measure binding affinity at 5-HT2B receptor; details: test ligand 10 μM; [3H]mesulergine 2 nM
T3 construct: host or cells: CHO cells
T3 sequence (P41595 whole entry): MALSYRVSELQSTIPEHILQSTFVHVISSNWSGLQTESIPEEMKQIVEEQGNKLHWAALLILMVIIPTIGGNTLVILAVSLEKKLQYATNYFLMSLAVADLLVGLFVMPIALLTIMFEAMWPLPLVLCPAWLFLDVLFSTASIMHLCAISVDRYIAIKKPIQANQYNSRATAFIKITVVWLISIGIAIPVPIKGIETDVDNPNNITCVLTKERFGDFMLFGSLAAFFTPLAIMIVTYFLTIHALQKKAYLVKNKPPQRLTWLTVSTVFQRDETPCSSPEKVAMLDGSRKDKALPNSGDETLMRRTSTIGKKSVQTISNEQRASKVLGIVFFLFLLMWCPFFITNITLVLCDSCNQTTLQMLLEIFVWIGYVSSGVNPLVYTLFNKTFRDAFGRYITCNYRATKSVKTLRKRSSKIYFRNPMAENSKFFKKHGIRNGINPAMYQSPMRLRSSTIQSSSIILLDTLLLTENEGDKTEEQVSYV

[4] = molecular target: T4, 5-HT1A receptor (Homo sapiens, UniProt P08908); test: Functional 5-HT1A receptor cAMP assay in CHO-K1/5-HT1A/Gα15 cells; format: cell-based; details: for 5-HT1A receptor engagement (change in cAMP levels), in words: +5-HT1A cells, 4 μM forskolin, FIGS. 37B-37H
T4 construct: purchased Perkin Elmer 6110501400UA
T4 sequence (P08908 1-422): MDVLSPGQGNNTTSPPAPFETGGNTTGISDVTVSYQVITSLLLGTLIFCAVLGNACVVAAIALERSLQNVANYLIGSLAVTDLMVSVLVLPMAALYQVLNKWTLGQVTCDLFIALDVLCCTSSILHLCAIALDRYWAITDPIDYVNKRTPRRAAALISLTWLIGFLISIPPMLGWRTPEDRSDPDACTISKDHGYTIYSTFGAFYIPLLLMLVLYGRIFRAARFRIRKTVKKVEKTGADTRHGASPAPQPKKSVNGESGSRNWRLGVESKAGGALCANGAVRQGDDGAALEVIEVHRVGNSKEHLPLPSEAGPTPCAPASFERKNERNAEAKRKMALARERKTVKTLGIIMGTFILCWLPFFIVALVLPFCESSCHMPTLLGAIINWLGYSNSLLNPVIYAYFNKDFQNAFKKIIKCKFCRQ

[5] = molecular target: T5, human serotonin transporter (SERT) (Homo sapiens, UniProt P31645); test: biochemical; format: binding
T5 construct: purchased PerkinElmer RBHSTM400UA
T5 sequence (P31645 whole entry): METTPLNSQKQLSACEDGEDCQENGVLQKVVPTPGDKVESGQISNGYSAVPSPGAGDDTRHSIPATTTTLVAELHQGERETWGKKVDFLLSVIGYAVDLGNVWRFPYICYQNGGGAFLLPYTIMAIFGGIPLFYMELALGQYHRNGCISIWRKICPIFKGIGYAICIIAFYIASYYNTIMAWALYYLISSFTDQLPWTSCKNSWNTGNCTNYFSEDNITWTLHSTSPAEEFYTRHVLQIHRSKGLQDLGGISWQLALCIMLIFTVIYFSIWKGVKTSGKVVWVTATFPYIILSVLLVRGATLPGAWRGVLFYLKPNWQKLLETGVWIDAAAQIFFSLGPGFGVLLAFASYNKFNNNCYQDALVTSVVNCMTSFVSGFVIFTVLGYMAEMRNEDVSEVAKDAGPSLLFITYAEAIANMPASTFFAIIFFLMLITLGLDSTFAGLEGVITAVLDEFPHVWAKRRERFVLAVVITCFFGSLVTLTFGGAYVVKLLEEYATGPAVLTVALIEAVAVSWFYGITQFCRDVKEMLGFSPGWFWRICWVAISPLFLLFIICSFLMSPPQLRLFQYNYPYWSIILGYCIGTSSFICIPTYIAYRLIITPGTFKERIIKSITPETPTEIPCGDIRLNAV

[6] = molecular target: T6, D2 (h) (Homo sapiens, UniProt P14416); test: Competition assay to measure binding affinity at D2L receptor; details: test ligand 10 μM; [3H]methylspiperone 0.3 nM
T6 construct: host or cells: HEK-293 cells
T6 sequence (P14416 whole entry): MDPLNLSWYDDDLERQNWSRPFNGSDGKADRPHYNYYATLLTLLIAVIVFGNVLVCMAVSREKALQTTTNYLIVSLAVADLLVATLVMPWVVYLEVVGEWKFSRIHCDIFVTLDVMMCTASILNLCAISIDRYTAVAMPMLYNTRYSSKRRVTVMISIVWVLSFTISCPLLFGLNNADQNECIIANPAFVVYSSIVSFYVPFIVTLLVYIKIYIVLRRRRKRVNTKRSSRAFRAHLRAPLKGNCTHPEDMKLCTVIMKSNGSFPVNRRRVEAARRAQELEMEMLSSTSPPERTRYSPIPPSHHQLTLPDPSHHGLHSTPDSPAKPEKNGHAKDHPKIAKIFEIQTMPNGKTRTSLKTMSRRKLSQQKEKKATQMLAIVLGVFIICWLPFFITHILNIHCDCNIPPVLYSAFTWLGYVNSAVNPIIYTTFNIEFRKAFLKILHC

[7] = molecular target: T7, 5-HT1B (h) (Homo sapiens, UniProt P28222); test: Competition assay to measure binding affinity at 5-HT1B receptor; details: test ligand 10 μM; [3H]GR125743 1 nM
T7 construct: host or cells: Chem-1 (RBL) cells
T7 sequence (P28222 whole entry): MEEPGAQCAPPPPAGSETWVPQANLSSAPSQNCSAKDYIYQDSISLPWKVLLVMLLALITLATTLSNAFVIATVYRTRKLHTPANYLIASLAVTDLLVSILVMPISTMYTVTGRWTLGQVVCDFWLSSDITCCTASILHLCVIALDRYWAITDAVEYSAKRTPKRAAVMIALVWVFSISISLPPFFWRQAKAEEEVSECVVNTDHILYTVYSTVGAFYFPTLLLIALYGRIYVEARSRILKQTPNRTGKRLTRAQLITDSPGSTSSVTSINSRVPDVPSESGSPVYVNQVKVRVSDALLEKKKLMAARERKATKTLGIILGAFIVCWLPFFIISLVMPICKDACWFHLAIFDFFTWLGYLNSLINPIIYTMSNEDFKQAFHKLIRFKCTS

[8] = molecular target: T8, 5-HT2C (h) (Homo sapiens, UniProt P28335); test: Competition assay to measure binding affinity at 5-HT2C receptor; details: test ligand 10 μM; [125I](±)DOI 0.1 nM
T8 construct: host or cells: HEK-293 cells
T8 sequence (P28335 33-458): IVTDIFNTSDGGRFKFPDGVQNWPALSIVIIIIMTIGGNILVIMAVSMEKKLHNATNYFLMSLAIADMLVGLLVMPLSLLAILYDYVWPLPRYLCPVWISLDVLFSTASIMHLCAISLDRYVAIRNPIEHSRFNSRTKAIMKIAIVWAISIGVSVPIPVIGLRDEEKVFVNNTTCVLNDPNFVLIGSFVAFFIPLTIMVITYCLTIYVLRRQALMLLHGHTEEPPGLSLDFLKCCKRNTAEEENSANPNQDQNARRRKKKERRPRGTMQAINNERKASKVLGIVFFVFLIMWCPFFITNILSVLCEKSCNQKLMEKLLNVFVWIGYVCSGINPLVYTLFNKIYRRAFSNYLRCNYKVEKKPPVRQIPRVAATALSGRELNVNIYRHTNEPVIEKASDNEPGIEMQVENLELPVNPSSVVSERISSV

[9] = molecular target: T9, alpha2A (h) (Homo sapiens, UniProt P08913); test: Competition assay to measure binding affinity at alpha2A receptor; details: test ligand 10 μM, [3H]RX 821002 1 nM; for inhibition at 10 µM: read-out: α-2A, percent of control-specific binding
T9 construct: host or cells: CHO cells
T9 sequence (P08913 1-465): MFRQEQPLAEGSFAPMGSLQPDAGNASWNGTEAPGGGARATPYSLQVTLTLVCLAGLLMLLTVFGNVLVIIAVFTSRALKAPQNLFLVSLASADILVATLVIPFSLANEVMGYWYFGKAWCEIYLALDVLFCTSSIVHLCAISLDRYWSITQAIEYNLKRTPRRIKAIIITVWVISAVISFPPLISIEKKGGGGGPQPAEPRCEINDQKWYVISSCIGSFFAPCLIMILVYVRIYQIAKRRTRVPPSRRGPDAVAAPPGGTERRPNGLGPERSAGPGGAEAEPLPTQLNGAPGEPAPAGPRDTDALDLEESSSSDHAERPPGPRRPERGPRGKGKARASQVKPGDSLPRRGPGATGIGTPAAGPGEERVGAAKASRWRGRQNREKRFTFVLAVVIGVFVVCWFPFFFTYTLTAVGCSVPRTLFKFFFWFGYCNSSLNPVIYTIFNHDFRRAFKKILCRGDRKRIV

[10] = molecular target: T10, DAT (h) (Homo sapiens, UniProt Q01959); test: Competition assay to measure binding affinity at dopamine transporter (DAT); details: test ligand 10 μM; [3H]BTCP 4 nM
T10 construct: host or cells: CHO cells
T10 sequence (Q01959 whole entry): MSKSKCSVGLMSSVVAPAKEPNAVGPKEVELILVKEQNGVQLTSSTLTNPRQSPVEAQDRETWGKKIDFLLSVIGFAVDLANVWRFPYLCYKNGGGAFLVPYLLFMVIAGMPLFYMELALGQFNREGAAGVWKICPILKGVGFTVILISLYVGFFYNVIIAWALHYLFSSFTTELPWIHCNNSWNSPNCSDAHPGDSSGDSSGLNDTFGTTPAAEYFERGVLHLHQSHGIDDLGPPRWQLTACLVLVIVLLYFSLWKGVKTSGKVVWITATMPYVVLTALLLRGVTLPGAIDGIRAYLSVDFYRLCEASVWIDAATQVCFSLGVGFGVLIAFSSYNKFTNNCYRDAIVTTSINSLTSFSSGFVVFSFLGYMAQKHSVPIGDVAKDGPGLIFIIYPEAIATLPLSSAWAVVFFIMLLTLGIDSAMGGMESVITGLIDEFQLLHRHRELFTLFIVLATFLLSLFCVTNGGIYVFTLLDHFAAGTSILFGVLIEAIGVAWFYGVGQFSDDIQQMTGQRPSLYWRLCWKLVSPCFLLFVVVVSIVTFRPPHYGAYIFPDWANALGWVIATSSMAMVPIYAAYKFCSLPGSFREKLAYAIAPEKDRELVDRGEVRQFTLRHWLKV

[11] = molecular target: T11, NET (h) (Homo sapiens, UniProt P23975); test: Competition assay to measure binding affinity at norepinephrine transporter (NET); details: test ligand 10 μM; [3H]nisoxetine 1 nM
T11 construct: host or cells: CHO cells
T11 sequence (P23975 whole entry): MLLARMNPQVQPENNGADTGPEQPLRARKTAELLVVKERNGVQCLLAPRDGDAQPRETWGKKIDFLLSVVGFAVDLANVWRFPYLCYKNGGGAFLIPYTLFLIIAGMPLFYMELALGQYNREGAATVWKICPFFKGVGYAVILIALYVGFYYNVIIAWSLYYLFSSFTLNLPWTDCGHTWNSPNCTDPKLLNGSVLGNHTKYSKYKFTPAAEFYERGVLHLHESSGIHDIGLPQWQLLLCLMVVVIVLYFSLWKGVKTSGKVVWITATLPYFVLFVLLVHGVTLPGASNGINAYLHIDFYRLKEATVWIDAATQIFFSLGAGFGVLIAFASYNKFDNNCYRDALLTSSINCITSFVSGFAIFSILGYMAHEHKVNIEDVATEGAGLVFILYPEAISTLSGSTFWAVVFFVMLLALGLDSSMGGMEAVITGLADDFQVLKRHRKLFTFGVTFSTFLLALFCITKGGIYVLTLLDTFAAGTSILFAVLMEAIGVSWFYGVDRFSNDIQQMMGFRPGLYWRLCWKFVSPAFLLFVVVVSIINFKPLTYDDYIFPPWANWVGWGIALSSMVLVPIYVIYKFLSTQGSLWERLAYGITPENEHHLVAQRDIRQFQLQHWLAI

[12] = molecular target: T12, MT1 (ML1A) (h) (Homo sapiens, UniProt P48039); test: Competition assay to measure binding affinity at MT1 receptor; details: test ligand 10 μM; [125I]2-iodomelatonin 0.01 nM
T12 construct: host or cells: CHO cells
T12 sequence (P48039 whole entry): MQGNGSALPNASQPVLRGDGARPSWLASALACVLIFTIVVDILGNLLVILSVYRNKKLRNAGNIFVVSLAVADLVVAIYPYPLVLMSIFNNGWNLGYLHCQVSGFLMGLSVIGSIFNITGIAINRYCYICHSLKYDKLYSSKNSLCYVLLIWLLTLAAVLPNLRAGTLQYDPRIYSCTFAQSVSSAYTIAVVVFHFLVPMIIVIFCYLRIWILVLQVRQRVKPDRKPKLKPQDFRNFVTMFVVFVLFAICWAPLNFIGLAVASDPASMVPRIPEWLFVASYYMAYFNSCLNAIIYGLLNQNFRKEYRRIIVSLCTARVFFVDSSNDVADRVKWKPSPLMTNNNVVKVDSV

[13] = molecular target: 5-HT2A receptor (Homo sapiens, UniProt P28223); test: 5-HT2A receptor radioligand competition assay (SPA)
[14] = molecular target: T4, 5-HT1A receptor; test: 5-HT1A receptor radioligand competition assay (SPA); format: binding; details: competition with 0.5 nM 8-hydroxy-DPAT [3H]; test compound 3 nM to 1 mM; read-out: 5-HT1A, Ki
[15] = molecular target: T13, 5-HT7 (h) (Homo sapiens, UniProt P34969); test: Competition assay to measure binding affinity at 5-HT7 receptor; details: test ligand 10 μM; [3H]LSD 4 nM
T13 construct: host or cells: HEK-293 cells
T13 sequence (P34969 whole entry): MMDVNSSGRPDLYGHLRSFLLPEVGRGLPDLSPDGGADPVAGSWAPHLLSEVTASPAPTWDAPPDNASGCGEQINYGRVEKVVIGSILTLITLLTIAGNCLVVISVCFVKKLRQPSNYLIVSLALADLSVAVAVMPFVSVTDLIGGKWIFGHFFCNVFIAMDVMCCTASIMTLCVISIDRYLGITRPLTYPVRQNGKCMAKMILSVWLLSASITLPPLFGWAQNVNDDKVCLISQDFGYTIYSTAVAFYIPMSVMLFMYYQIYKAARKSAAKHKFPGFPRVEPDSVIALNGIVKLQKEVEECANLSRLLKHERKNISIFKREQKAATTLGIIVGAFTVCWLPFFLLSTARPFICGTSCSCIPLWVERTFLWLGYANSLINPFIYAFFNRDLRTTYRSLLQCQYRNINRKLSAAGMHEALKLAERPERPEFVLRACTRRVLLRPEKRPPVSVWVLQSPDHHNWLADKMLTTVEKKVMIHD

T1 sequence (P35462 whole entry): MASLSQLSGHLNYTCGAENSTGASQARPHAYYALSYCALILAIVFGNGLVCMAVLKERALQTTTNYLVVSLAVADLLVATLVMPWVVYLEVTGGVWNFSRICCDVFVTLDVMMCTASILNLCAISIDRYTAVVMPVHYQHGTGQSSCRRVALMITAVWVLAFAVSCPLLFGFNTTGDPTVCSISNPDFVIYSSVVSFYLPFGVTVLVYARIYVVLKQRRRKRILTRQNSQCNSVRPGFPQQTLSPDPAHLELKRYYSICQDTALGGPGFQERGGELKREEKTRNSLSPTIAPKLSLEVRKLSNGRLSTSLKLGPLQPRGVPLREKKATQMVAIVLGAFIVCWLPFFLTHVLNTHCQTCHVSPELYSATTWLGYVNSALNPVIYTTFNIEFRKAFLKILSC

SMILES | D3, percent of control-specific binding [1] | HT1D, percent of control-specific binding [2] | HT2B, percent of control-specific binding [3] | 5-HT1A receptor engagement (change in cAMP levels), in words [4] | Ki [5] | SERT binding, binding curve in words [5] | D2, percent of control-specific binding [6] | HT1B, percent of control-specific binding [7] | HT2C, percent of control-specific binding [8] | inhibition at 10 µM [9] | DAT, percent of control-specific binding [10] | NET, percent of control-specific binding [11] | MT1, percent of control-specific binding [12] | Ki [14] | HT7, percent of control-specific binding [15] | EC50 [4] | Ki [13] | other results
COc1cc(CCN)cc(OC)c1OC [mescaline, 3,4,5 trimethoxyphenethylamine] | −13% | 70% | 80% | no | 406 µM | SERT binding at higher ligand concentrations | 3% | 11% | 95% | 57% | −1% | −9% | 6% |  |  |  |  | 
CNC(C)Cc1ccc2c(c1)OCO2 (stereo not shown) [MDMA, reference compound] | 18% | 18% | 85% | mild |  | bind SERT to varying degrees | −10% | −21% | 96% |  | 28% | 3% | 1% | 11 µM | 58% |  |  | EC50 ([4]; reduction of cAMP in +5-HT1A cells stimulated with 4 μM forskolin, 20 min, read-out: 5-HT1A, EC50): > 1000 µM; Ki ([5]; read-out: SERT, Ki): 5.8 µM; Ki ([13]; read-out: 5-HT2A, Ki, competition with 1 nM [3H]ketanserin, test compound 3 nM to 1 mM): 39.9 µM; α-2A, percent of control-specific binding [9]: 27%
COc1cc2c(cc1CCN1CCCC1)OCO2 [A(XIV)] | 46% | 28% | 63% | receptor modulation at evaluated ligand concentrations | 23.2 µM |  | 12% | 7% | 90% | 54% | 0% | 0% | 7% | 0.0462 µM | 75% | 1.17 µM | 11 µM | 
c1cc(CCN2CCCC2)c2c(c1)OCO2 [A(XXIX)] | 22% | 44% | 48% |  | 10.1 µM |  | 0% | 3% | 87% | 57% | 49% | 2% | 1% | 0.0132 µM | 48% | 0.352 µM | 8 µM | 
